According to patent publication US20240067632A1, “WEE1 Degrading Compounds and Uses Thereof” (Bristol-Myers Squibb Company, priority 2022, published 2024):
Read-outs that look alike come from different tables or passages of the source.

Key:
WEE1 = target: T1, WEE1 (Homo sapiens, UniProt P30291+Q96SW2); test: WEE1-ePL degradation assay (LentiX-WEE1-ePL-GSPT1-ND cells, InCELL Hunter luminescence, 4 h); assay type: cell-based; settings: 293T-LentiX WEE1-ePL cells; for DC50: read-out: 293T-LentiX WEE1-ePL Degradation 4 hr (EC50)
T1 construct: C-terminal ePL-tagged (DiscoverX, Fremont, CA) full-length WEE1 expression construct; expressed in transfected cells; host or cells: LentiX-HEK293T (Invitrogen), lentiviral transduction; co-expressing GSPT1-GN (G576N, lacking the first 158 amino acids)
Summary of the method: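 HEK293T cells stably expressing C-terminal ePL-tagged full-length WEE1, 2500 cells/well, treated 4 h at 37° C with a 10-point 3-fold series from 1 or 10 uM. Remaining WEE1-ePL read by InCELL Hunter luminescence after 30 min. EC50 came from a four-parameter logistic fit, with Ymax set from DMSO control.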

MKN45 cells = test: MKN45 cell proliferation assay (Cell-Titer-Glo, 120 h); assay type: cell-based; settings: for EC50: Homo sapiens, MKN-45, 120 h, Cell-Titer-Glo, read-out: MKN45 Cell Prolif. 120 hr (EC50); for MKN45 Cell Prolif. 120 hr (Ymin-Obs): minimal percent of DMSO control observed in the concentrations tested
Summary of the method: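 Cells seeded at 400/well onto pre-printed 10-point half-log dilutions (top 1 or 10 uM, 0.1% DMSO final), in triplicate, and grown 120 h at 37 C. Viability by Cell-Titer-Glo luminescence, blank-subtracted and normalised to DMSO; EC50 from four-parameter logistic fit, with observed minimal % of control recorded as Ymin-obs.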

[1] = lower limit of the fit (0 = luciferase inhibitor, Ymax = DMSO control)
[2] = lower limit of the fit (Ymin=0 luciferase inhibitor, Ymax DMSO control)

293T-LentiX WEE1-ePL Degradation 4 hr (Ymin) (WEE1; [1]) | DC50 (WEE1) [nM] | EC50 (MKN45 cells; growth inhibition) [nM] | 293T-LentiX WEE1-ePL Degradation 4 hr (Ymin) (WEE1; [2]) | EC50 (MKN45 cells) [nM] | SMILES | MKN45 Cell Prolif. 120 hr (Ymin-Obs) (MKN45 cells)
33 | 4.73 | 2.19 | – | – | O=C1CCC(N2Cc3cc(O[C@H]4CCN(Cc5ccc6nc(COC7CCOCC7)ccc6c5)C4)ccc3C2=O)C(=O)N1 (stereo partly drawn) [3-(5-{[(3S)-1-({2-[(oxan-4-yloxy)methyl]quinolin-6-yl}methyl)pyrrolidin-3-yl]oxy}-1-oxo-2,3-dihydro-1H-isoindol-2-yl)piperidine-2,6-dione] | 7.295
29 | 38.9 | 51.6 | – | – | CC#Cc1ncc2cc(CN3CC[C@H](Oc4ccc5c(c4)CN(C4CCC(=O)NC4=O)C5=O)C3)ccc2n1 (stereo partly drawn) [3-(1-oxo-5-{[(3S)-1-{[2-(prop-1-yn-1-yl)quinazolin-6-yl]methyl}pyrrolidin-3-yl]oxy}-2,3-dihydro-1H-isoindol-2-yl)piperidine-2,6-dione] | 8.56
– | 5.2 | – | 25.33 | 5.09 | C[C@@H]1CC(c2ccc3cc(CN4CC[C@H](Oc5ccc6c(c5)CN(C5CCC(=O)NC5=O)C6=O)C4)ccc3n2)C[C@@H](C)O1 (stereo partly drawn) [3-(5-{[(3S)-1-({2-[(2R,6R)-2,6-dimethyloxan-4-yl]quinolin-6-yl}methyl)pyrrolidin-3-yl]oxy}-1-oxo-2,3-dihydro-1H-isoindol-2-yl)piperidine-2,6-dione] | 10.09
31.33 | 4.62 | 5.35 | – | – | CO[C@H]1CC[C@@H](Oc2ccc3cc(CN4CC[C@H](Oc5ccc6c(c5)CN(C5CCC(=O)NC5=O)C6=O)C4)ccc3n2)CC1 (stereo partly drawn) [3-(1-oxo-5-{[(3S)-1-[(2-{[(1s,4s)-4-methoxycyclohexyl]oxy}quinolin-6-yl)methyl]pyrrolidin-3-yl]oxy}-2,3-dihydro-1H-isoindol-2-yl)piperidine-2,6-dione] | 8.79
29 | 2.71 | 6.07 | – | – | O=C1CCC(N2Cc3cc(O[C@H]4CCN(Cc5ccc6nc([C@H]7CCOC7)ccc6c5)C4)ccc3C2=O)C(=O)N1 (stereo partly drawn) [3-(1-oxo-5-{[(3S)-1-({2-[(3R)-oxolan-3-yl]quinolin-6-yl}methyl)pyrrolidin-3-yl]oxy}-2,3-dihydro-1H-isoindol-2-yl)piperidine-2,6-dione] | 8.454
35 | 7.79 | 32.8 | – | – | N#Cc1nc2ccc(CN3CC[C@H](Oc4ccc5c(c4)CN(C4CCC(=O)NC4=O)C5=O)C3)cc2cc1F (stereo partly drawn) [6-{[(3S)-3-{[2-(2,6-dioxopiperidin-3-yl)-1-oxo-2,3-dihydro-1H-isoindol-5-yl]oxy}pyrrolidin-1-yl]methyl}-3-fluoroquinoline-2-carbonitrile] | 12.265
30 | 4.51 | 2.62 | – | – | O=C1CCC(N2Cc3cc(O[C@H]4CCN(Cc5ccc6nc(CO[C@@H]7CCOC7)ccc6c5)C4)ccc3C2=O)C(=O)N1 (stereo partly drawn) [3-(1-oxo-5-{[(3S)-1-[(2-{[(3R)-oxolan-3-yloxy]methyl}quinolin-6-yl)methyl]pyrrolidin-3-yl]oxy}-2,3-dihydro-1H-isoindol-2-yl)piperidine-2,6-dione] | 6.56
31 | 2.09 | 5.21 | – | – | O=C1CCC(N2Cc3cc(O[C@H]4CCN(Cc5ccc6nc([C@H]7C[C@@H](O)C7)ccc6c5)C4)ccc3C2=O)C(=O)N1 (stereo partly drawn) [3-(1-oxo-5-{[(3S)-1-({2-[(1s,3s)-3-hydroxycyclobutyl]quinolin-6-yl}methyl)pyrrolidin-3-yl]oxy}-2,3-dihydro-1H-isoindol-2-yl)piperidine-2,6-dione] | 6.89
26.94 | 3.55 | 26.5 | – | – | O=C1CC[C@@H](N2Cc3cc(O[C@H]4CCN(Cc5ccc6ncccc6c5)C4)ccc3C2=O)C(=O)N1 [(3R)-3-(1-oxo-5-{[(3S)-1-[(quinolin-6-yl)methyl]pyrrolidin-3-yl]oxy}-2,3-dihydro-1H-isoindol-2-yl)piperidine-2,6-dione] | 12.45
31.5 | 2.6 | 1.38 | – | – | O=C1CCC(N2Cc3cc(O[C@H]4CCN(Cc5ccc6nc([C@@H]7CC[C@@H](O)C7)ccc6c5)C4)ccc3C2=O)C(=O)N1 (stereo partly drawn) [3-(5-{[(3S)-1-({2-[(1R,3R)-3-hydroxycyclopentyl]quinolin-6-yl}methyl)pyrrolidin-3-yl]oxy}-1-oxo-2,3-dihydro-1H-isoindol-2-yl)piperidine-2,6-dione] | 8.2675

Continued, molecule first:

SMILES | 293T-LentiX WEE1-ePL Degradation 4 hr (Ymin) (WEE1; [1]) | DC50 (WEE1) [nM] | EC50 (MKN45 cells; growth inhibition) [nM] | 293T-LentiX WEE1-ePL Degradation 4 hr (Ymin) (WEE1; [2]) | EC50 (MKN45 cells) [nM] | MKN45 Cell Prolif. 120 hr (Ymin-Obs) (MKN45 cells)
Cc1ccc2c(F)c(CN3CC[C@H](Oc4ccc5c(c4)CN(C4CCC(=O)NC4=O)C5=O)C3)ccc2n1 (stereo partly drawn) [3-(5-{[(3S)-1-[(5-fluoro-2-methylquinolin-6-yl)methyl]pyrrolidin-3-yl]oxy}-1-oxo-2,3-dihydro-1H-isoindol-2-yl)piperidine-2,6-dione] | 28.365 | 1.51 | 8.08 | – | – | 9.22
O=C1CCC(N2Cc3cc(O[C@H]4CCN(Cc5cc(-c6ccc(C7CCOCC7)cc6)ccn5)C4)ccc3C2=O)C(=O)N1 (stereo partly drawn) [3-(5-{[(3S)-1-({4-[4-(oxan-4-yl)phenyl]pyridin-2-yl}methyl)pyrrolidin-3-yl]oxy}-1-oxo-2,3-dihydro-1H-isoindol-2-yl)piperidine-2,6-dione] | 31 | 1.33 | 0.192 | – | – | 6.39
Cc1cc(Cl)c2cc(CN3CC[C@H](Oc4ccc5c(c4)CN(C4CCC(=O)NC4=O)C5=O)C3)ccc2n1 (stereo partly drawn) [3-(5-{[(3S)-1-[(4-chloro-2-methylquinolin-6-yl)methyl]pyrrolidin-3-yl]oxy}-1-oxo-2,3-dihydro-1H-isoindol-2-yl)piperidine-2,6-dione] | 32.06 | 4.29 | 392 | – | – | 44.06
O=C1CC[C@H](N2Cc3cc(O[C@H]4CCN(Cc5cc(C6CC6)c6nc(N7CCOCC7)ncc6c5)C4)ccc3C2=O)C(=O)N1 [(3S)-3-(5-{[(3S)-1-{[8-cyclopropyl-2-(morpholin-4-yl)quinazolin-6-yl]methyl}pyrrolidin-3-yl]oxy}-1-oxo-2,3-dihydro-1H-isoindol-2-yl)piperidine-2,6-dione] | – | 2.5 | – | 42.1 | 2.28 | 2.136
O=C1CCC(N2Cc3cc(O[C@H]4CCN(Cc5cc(-c6cccc(N7CCOCC7)c6)ccn5)C4)ccc3C2=O)C(=O)N1 (stereo partly drawn) [3-(5-{[(3S)-1-({4-[3-(morpholin-4-yl)phenyl]pyridin-2-yl}methyl)pyrrolidin-3-yl]oxy}-1-oxo-2,3-dihydro-1H-isoindol-2-yl)piperidine-2,6-dione] | 28 | 2.32 | 7.33 | – | – | 4.54
O=C1CCC(N2Cc3cc(O[C@H]4CCN(Cc5ccc6nc(N7[C@@H]8CC[C@H]7COC8)ccc6c5)C4)ccc3C2=O)C(=O)N1 (stereo partly drawn) [3-(5-{[(3S)-1-({2-[(1R,5S)-3-oxa-8-azabicyclo[3.2.1]octan-8-yl]quinolin-6-yl}methyl)pyrrolidin-3-yl]oxy}-1-oxo-2,3-dihydro-1H-isoindol-2-yl)piperidine-2,6-dione] | 28 | 4.47 | 9.72 | – | – | 11.965
O=C1CCC(N2Cc3cc(O[C@H]4CCN(Cc5cc6ccccc6nn5)C4)ccc3C2=O)C(=O)N1 (stereo partly drawn) [3-(5-{[(3S)-1-[(cinnolin-3-yl)methyl]pyrrolidin-3-yl]oxy}-1-oxo-2,3-dihydro-1H-isoindol-2-yl)piperidine-2,6-dione] | 26.03 | 12.5 | 66.3 | – | – | 8.97
O=C1CCC(N2Cc3cc(O[C@H]4CCN(Cc5cnc6cccnc6c5)C4)ccc3C2=O)C(=O)N1 (stereo partly drawn) [3-(5-{[(3S)-1-[(1,5-naphthyridin-3-yl)methyl]pyrrolidin-3-yl]oxy}-1-oxo-2,3-dihydro-1H-isoindol-2-yl)piperidine-2,6-dione] | 66 | 75.4 | 561 | – | – | 73.34
N#Cc1ccc2cc(CN3C[C@H](F)[C@H](Oc4ccc5c(c4)CN(C4CCC(=O)NC4=O)C5=O)C3)ccc2n1 (stereo partly drawn) [6-{[(3R,4S)-3-{[2-(2,6-dioxopiperidin-3-yl)-1-oxo-2,3-dihydro-1H-isoindol-5-yl]oxy}-4-fluoropyrrolidin-1-yl]methyl}quinoline-2-carbonitrile] | 33.71 | 13.1 | 22.7 | – | – | 24.13
